Reference: patent US4283398A, “Cephalosporins” (Mitsui Toatsu Chemicals, Inc., priority 1978, dated 1981)
Like-named read-outs stand apart in the source and are kept apart here.

Experiments:
Assay in all cases: minimum growth inhibitory concentration (MIC) method
Assay type in all cases: cell-based
[1] = test system: Klebsiella pneumoniae (Horino); details: K. pneumoniae Horino, HIA medium, 37° C., 18 hours, sodium salts
Experimental: (§1) The antibacterial activities of the cephalosporins of this invention were measured using the sodium salts of the compounds obtained in Synthesis Examples 1 and 2. The procedure and the results are shown in Referential Example 1.
(§2) Carbenicillin sodium salt (CB-PC) and cephazoline sodium salt (CEZ) were used as controls.
(§3) The antibacterial activities of the test compounds against various Gram-positive and Gram-negative bacteria were determined in a customary manner by the minimum growth inhibitory concentration method (MIC method).
(§4) A commercially available heart infusion agar medium (to be abbreviated HIA medium) was used as an assay medium, and a commercially available trypto-soy bouillon medium (to be abbreviated TSB) was used as a medium for the growth of test bacterial strains.
(§5) The test compound was diluted with the melted HIA medium to 100 μg/ml as a maximum concentration, and then serially diluted double. The dilutions were poured into sterilized Petri dishes respectively and allowed to cool and solidify to prepare plates containing the test compound.
(§6) The test bacterial strain was cultivated at 37° C. for 18 to 24 hours in the TSB medium. The culture broth was diluted to 50 to 500 times with a freshly prepared TSB culture medium, and one platinum loopful of the dilution was inoculated in each of the plates containing the test compound. The plate was incubated at 37° C. for 18 hours, and the state of growth of the strain on the plate was observed, and the minimum growth inhibitory concentration (MIC) of the test compound was determined.

[2] = test system: Pseudomonas aeruginosa (718); details: P. aeruginosa 718, HIA medium, 37° C., 18 hours, sodium salts
Experimental: as §1, §2, §3, §4, §5, §6

[3] = test system: Pseudomonas aeruginosa (395); details: P. aeruginosa 395, HIA medium, 37° C., 18 hours, sodium salts
Experimental: as §1, §2, §3, §4, §5, §6

[4] = test system: Enterobacter cloacae (D-49); details: HIA medium, 37° C., 18 hours, sodium salts
Experimental: as §1, §2, §3, §4, §5, §6

[5] = test system: Klebsiella pneumoniae (ATCC 10031); details: read-out: Minimum growth inhibitory concentration
Experimental: as §1, §2, §3, §4, §5, §6

Shigella flexneri (K-A) = details: HIA medium, 37° C., 18 hours, sodium salts
Experimental: as §1, §2, §3, §4, §5, §6

[6] = test system: Pseudomonas Maltophilia (F-6257); details: Stenotrophomonas maltophilia, HIA medium, 37° C., 18 hours, sodium salts
Experimental: as §1, §2, §3, §4, §5, §6

Proteus morganii (C-39) = details: Morganella morganii, HIA medium, 37° C., 18 hours, sodium salts
Experimental: as §1, §2, §3, §4, §5, §6

[7] = test system: Streptococcus faecalis (Hoshi); details: Enterococcus faecalis, HIA medium, 37° C., 18 hours, sodium salts
Experimental: as §1, §2, §3, §4, §5, §6

[8] = test system: Enterobacter aerogenes (IFO 3320); details: Klebsiella aerogenes, IFO3320; Enterobacter aerogenes IFO 3320; HIA medium, 37° C., 18 hours; sodium salts; read-out: Minimum growth inhibitory concentration
Experimental: as §1, §2, §3, §4, §5, §6

Escherichia coli (26R03) = details: E. coli 26R03, HIA medium, 37° C., 18 hours, sodium salts
Experimental: as §1, §2, §3, §4, §5, §6

[9] = test system: Escherichia coli (14H114); details: E. coli 14H114, HIA medium, 37° C., 18 hours, sodium salts
Experimental: as §1, §2, §3, §4, §5, §6

[10] = test system: Pseudomonas aeruginosa (S-1); details: P. aeruginosa S-1, HIA medium, 37° C., 18 hours, sodium salts
Experimental: as §1, §2, §3, §4, §5, §6

Escherichia coli (NIHJ) = details: E. coli NIHJ, HIA medium, 37° C., 18 hours, sodium salts
Experimental: as §1, §2, §3, §4, §5, §6

[11] = test system: Staphylococcus aureus (FDA 209P); details: FDA209P, S. aureus FDA 209P, HIA medium, 37° C., 18 hours, sodium salts, read-out: Minimum growth inhibitory concentration
Experimental: as §1, §2, §3, §4, §5, §6

[12] = test system: Pseudomonas aeruginosa (NCTC 7244); details: NCTC7244, P. aeruginosa NCTC 7244, HIA medium, 37° C., 18 hours, sodium salts
Experimental: as §1, §2, §3, §4, §5, §6

[13] = test system: Bacillus cereus (IAM 1792); details: IAM1792, HIA medium, 37° C., 18 hours, sodium salts
Experimental: as §1, §2, §3, §4, §5, §6

Escherichia coli (K-12) = details: E. coli K-12, HIA medium, 37° C., 18 hours, sodium salts
Experimental: as §1, §2, §3, §4, §5, §6

[14] = test system: Staphylococcus aureus (Y-8); details: S. aureus Y-8, HIA medium, 37° C., 18 hours, sodium salts
Experimental: as §1, §2, §3, §4, §5, §6

[15] = test system: Pseudomonas aeruginosa (IFO-3901); details: IFO3901, P. aeruginosa IFO-3901, HIA medium, 37° C., 18 hours, sodium salts
Experimental: as §1, §2, §3, §4, §5, §6

[16] = test system: Pseudomonas aeruginosa (F1629); details: P. aeruginosa F1629, HIA medium, 37° C., 18 hours, sodium salts
Experimental: as §1, §2, §3, §4, §5, §6

Proteus rettgeri (T-2) = details: Providencia rettgeri, HIA medium, 37° C., 18 hours, sodium salts
Experimental: as §1, §2, §3, §4, §5, §6

Proteus vulgaris (OX-19) = details: read-out: Minimum growth inhibitory concentration
Experimental: as §1, §2, §3, §4, §5, §6

[17] = test system: Salmonella enteritidis (KB-21); details: Salmonella enterica, read-out: Minimum growth inhibitory concentration
Experimental: as §1, §2, §3, §4, §5, §6

[18] = test system: Pseudomonas aeruginosa (ATCC 10145); details: ATCC10145, P. aeruginosa ATCC 10145, HIA medium, 37° C., 18 hours, sodium salts
Experimental: as §1, §2, §3, §4, §5, §6

[19] = test system: Klebsiella pneumoniae (B-172); details: K. pneumoniae B-172, HIA medium, 37° C., 18 hours, sodium salts
Experimental: as §1, §2, §3, §4, §5, §6

[20] = test system: Citrobacter freundii (F-34); details: HIA medium, 37° C., 18 hours, sodium salts
Experimental: as §1, §2, §3, §4, §5, §6

Structure (SMILES)	MIC [1] [µg/mL]	MIC [2] [µg/mL]	MIC [3] [µg/mL]	MIC [4] [µg/mL]	MIC (Shigella flexneri (K-A)) [µg/mL]	MIC [6] [µg/mL]	MIC (Proteus morganii (C-39)) [µg/mL]	MIC [7] [µg/mL]	MIC [8] [µg/mL]	MIC (Escherichia coli (26R03)) [µg/mL]	MIC [9] [µg/mL]	MIC [10] [µg/mL]	MIC (Escherichia coli (NIHJ)) [µg/mL]	MIC [11] [µg/mL]	MIC [12] [µg/mL]	MIC [13] [µg/mL]	MIC (Escherichia coli (K-12)) [µg/mL]	MIC [14] [µg/mL]	MIC [15] [µg/mL]	MIC [16] [µg/mL]	further results
Cn1nnnc1SCC1=C(C(=O)O)N2C(=O)C(NC(=O)[C@H](NC(=O)c3cnc4c(c3O)C(=O)CCC4)c3ccc(O)cc3)C2SC1 (single isomer, unassigned) [Synthesis Example 2, 7-[D-(-)-α-(4-hydroxy-5-oxo-5,6,7,8-tetrahydroquinoline-3-carboxamide)-α-(4-hydroxyphenyl)acetamido]-3-[[(1-methyl-1H-tetrazol-5-yl)thio]methyl]-Δ^3-cephem-4-carboxylic acid]	0.78	12.5	1.56	3.13	0.1	6.25	3.13	25	0.2	0.78	6.25	1.56	0.78	1.56	6.25	12.5	0.39	3.13	12.5	3.13	MIC ([5]; ATCC10031, K. pneumoniae ATCC 10031, HIA medium, 37° C., 18 hours, sodium salts): 0.39 µg/mL; MIC (Proteus rettgeri (T-2)): 1.56 µg/mL; MIC (Proteus vulgaris (OX-19); Proteus vulgaris OX-19, HIA medium, 37° C., 18 hours, sodium salts): 0.78 µg/mL; MIC ([17]; Salmonella enteritidis KB-21, HIA medium, 37° C., 18 hours, sodium salts): 0.39 µg/mL; MIC [18]: 12.5 µg/mL; MIC [19]: 0.78 µg/mL; MIC [20]: 0.39 µg/mL
Cc1nnc(SCC2=C(C(=O)O)N3C(=O)[C@@H](NC(=O)Cn4cnnn4)[C@H]3SC2)s1 [CEZ, sodium 7-[1-(1H)-tetrazoylacetamido]-3-[2-(5-methyl-1,3,4-thiadiazoyl)-thiomethyl]-Δ^3, cephem-4-carboxylate, reference compound]	3.13	> 100	> 100	> 100	1.56	> 100	> 100	25	3.13	50	6.25	> 100	3.13	0.2	> 100	100	3.13	0.78	> 100	> 100	MIC ([5]; ATCC10031, 18 h): 1.56 µg/mL; MIC (Proteus rettgeri (T-2)): 12.5 µg/mL; MIC (Proteus vulgaris (OX-19); Proteus vulgaris, 18 h): 1.56 µg/mL; MIC ([17]; ENTERITIDIS, 18 h): 1.56 µg/mL; MIC [18]: > 100 µg/mL; MIC [19]: 3.13 µg/mL; MIC [20]: 50 µg/mL
